Source: ChEMBL document CHEMBL1781973, “Novel and Potent 5-Piperazinyl Methyl-N 1-aryl Sulfonyl Indole Derivatives as 5-HT6 Receptor Ligands” (ACS Med Chem Lett, 2010)
pIC50, pKi: −log10 of the molar value. The source made the active and inactive calls. The rule behind the calls is not given here.

How the values were obtained:
[1] = molecular target: 5-hydroxytryptamine receptor 6 (Homo sapiens, UniProt P50406); assay: biochemical
Description: Displacement of [3H]LSD from human 5HT6 receptor expressed in HEK293 cells

CYP2C9*1 [2] = assay: Inhibition of human CYP2C9*1 at 10 uM; type: ADME
CYP2A6 [3] = molecular target: T1, CYP2A6 (Homo sapiens, UniProt P11509); assay: Inhibition of human CYP2A6 at 10 uM; type: ADME
T1 sequence (P11509 whole entry): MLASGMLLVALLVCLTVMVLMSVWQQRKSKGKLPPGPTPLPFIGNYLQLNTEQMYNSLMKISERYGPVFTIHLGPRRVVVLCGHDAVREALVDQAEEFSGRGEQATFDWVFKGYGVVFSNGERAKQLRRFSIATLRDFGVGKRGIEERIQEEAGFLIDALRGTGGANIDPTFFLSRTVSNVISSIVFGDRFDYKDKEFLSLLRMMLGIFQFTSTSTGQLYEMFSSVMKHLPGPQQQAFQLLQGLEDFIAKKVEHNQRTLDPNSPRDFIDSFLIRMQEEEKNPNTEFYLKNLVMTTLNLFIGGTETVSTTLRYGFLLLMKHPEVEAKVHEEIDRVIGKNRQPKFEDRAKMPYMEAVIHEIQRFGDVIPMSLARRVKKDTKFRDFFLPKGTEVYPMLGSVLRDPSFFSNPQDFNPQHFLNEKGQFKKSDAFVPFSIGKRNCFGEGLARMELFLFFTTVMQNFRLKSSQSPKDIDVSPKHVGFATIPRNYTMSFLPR

CYP1A2 [4] = molecular target: T2, CYP1A2 (Homo sapiens, UniProt P05177); assay: Inhibition of human CYP1A2 at 3 uM; type: ADME
T2 sequence (P05177 whole entry): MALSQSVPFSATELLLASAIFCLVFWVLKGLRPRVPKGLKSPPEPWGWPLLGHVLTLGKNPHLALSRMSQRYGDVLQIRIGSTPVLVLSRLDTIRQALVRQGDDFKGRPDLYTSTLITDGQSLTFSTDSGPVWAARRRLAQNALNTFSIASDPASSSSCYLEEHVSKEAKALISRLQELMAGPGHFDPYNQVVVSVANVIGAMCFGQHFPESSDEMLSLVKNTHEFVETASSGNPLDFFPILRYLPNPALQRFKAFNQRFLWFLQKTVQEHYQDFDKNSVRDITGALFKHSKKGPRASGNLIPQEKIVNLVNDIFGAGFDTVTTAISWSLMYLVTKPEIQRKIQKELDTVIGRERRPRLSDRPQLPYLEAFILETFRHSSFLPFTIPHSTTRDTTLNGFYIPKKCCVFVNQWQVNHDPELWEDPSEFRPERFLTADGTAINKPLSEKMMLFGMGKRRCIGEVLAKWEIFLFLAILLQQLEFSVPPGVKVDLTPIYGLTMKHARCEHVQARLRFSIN

CYP1A2 [5] = molecular target: T2, CYP1A2; assay: Inhibition of human CYP1A2 at 10 uM; type: ADME
CYP3A4 [6] = molecular target: T3, CYP3A4 (Homo sapiens, UniProt P08684); assay: Inhibition of human CYP3A4 at 10 uM; type: ADME
T3 sequence (P08684 whole entry): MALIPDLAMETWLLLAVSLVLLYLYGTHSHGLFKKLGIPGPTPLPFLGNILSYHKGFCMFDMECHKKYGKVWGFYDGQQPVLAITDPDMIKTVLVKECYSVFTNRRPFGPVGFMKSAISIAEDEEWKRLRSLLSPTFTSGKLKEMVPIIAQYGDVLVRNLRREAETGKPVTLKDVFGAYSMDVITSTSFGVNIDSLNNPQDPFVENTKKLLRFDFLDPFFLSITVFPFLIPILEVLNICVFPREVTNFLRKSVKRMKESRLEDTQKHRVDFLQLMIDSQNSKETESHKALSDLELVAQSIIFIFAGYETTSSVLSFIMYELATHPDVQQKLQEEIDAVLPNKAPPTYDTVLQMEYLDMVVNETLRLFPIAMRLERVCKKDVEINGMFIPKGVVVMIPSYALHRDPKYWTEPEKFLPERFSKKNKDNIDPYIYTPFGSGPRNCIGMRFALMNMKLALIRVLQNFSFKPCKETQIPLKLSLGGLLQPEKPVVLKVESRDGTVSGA

CYP2A6 [7] = molecular target: T1, CYP2A6; assay: Inhibition of human CYP2A6 at 3 uM; type: ADME
CYP2C19 [8] = molecular target: T4, CYP2C19 (Homo sapiens, UniProt P33261); assay: Inhibition of human CYP2C19 at 3 uM; type: ADME
T4 sequence (P33261 whole entry): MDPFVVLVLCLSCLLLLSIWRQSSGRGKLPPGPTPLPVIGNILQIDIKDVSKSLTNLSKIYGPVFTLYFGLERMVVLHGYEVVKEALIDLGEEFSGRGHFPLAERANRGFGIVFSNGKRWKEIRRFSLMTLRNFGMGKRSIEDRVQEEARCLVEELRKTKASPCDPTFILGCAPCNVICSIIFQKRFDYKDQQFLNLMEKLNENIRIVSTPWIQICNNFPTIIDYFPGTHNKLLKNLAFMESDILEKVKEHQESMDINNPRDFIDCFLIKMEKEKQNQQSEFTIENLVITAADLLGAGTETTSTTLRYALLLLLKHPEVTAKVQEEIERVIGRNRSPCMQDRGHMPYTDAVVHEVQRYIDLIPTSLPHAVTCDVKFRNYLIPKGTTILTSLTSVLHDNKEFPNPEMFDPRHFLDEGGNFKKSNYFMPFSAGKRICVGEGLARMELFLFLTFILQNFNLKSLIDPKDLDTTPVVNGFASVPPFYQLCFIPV

CYP3A4 [9] = molecular target: T3, CYP3A4; assay: Inhibition of human CYP3A4 at 3 uM; type: ADME
CYP2C9*1 [10] = assay: Inhibition of human CYP2C9*1 at 3 uM; type: ADME
CYP2C19 [11] = molecular target: T4, CYP2C19; assay: Inhibition of human CYP2C19 at 10 uM; type: ADME
CYP2D6 [12] = molecular target: T5, CYP2D6 (Homo sapiens, UniProt P10635); assay: Inhibition of human CYP2D6 at 10 uM; type: ADME
T5 sequence (P10635 whole entry): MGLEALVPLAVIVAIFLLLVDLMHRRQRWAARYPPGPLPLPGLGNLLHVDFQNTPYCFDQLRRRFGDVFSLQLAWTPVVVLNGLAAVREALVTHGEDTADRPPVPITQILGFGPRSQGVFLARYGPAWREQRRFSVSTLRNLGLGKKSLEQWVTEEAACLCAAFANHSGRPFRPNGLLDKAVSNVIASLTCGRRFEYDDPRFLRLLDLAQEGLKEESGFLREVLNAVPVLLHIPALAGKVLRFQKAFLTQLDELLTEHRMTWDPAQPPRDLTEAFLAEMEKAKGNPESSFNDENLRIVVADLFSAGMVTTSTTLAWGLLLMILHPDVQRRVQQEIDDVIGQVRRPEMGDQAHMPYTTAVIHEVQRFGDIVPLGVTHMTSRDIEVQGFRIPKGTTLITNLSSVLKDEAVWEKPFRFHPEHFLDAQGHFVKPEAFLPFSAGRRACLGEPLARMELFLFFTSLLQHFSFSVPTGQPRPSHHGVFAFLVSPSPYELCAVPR

CYP2D6 [13] = molecular target: T5, CYP2D6; assay: Inhibition of human CYP2D6 at 3 uM; type: ADME
[14] = Half life in fasted Wistar rat at 10 mg/kg, iv; type: ADME, organism-based; design: dose 10 mg/kg, route intravenous; settings: in vivo
[15] = Cmax in fasted Wistar rat at 10 mg/kg, iv; type: ADME, organism-based; design: dose 10 mg/kg, route intravenous; settings: in vivo
[16] = AUCt in fasted Wistar rat at 10 mg/kg, iv; type: ADME, organism-based; design: dose 10 mg/kg, route intravenous; settings: plasma
Rattus norvegicus [17] = assay: Apparent volume of distribution in fasted Wistar rat at 10 mg/kg, po; type: ADME, organism-based; design: dose 10 mg/kg, route oral; settings: in vivo
[18] = molecular target: 5-hydroxytryptamine receptor 7 (Homo sapiens, UniProt P34969); assay: Inhibition of human 5HT7 receptor expressed in CHO cells after 5 hrs by luciferase reporter assay; type: cell-based
5-hydroxytryptamine receptor 7, sequence (P34969 whole entry): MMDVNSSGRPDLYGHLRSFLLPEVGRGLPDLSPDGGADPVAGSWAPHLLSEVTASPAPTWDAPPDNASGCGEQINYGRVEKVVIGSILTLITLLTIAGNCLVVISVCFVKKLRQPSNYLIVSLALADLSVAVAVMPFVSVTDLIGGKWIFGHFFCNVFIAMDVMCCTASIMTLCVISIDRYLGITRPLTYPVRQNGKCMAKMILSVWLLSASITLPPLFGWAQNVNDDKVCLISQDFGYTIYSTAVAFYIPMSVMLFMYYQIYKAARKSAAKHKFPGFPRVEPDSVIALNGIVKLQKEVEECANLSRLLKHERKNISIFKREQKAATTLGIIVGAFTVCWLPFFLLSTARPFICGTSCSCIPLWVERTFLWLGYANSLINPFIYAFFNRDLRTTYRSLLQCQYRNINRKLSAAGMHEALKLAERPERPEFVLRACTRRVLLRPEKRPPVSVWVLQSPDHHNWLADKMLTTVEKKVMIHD

Rattus norvegicus [19] = assay: Cognitive enhancing effect against scopolamine-induced memory deficit in Wistar rat at 10 mg/kg, po by novel object recognition test; type: functional, organism-based; design: dose 10 mg/kg
[20] = Apparent volume of distribution in fasted Wistar rat at 10 mg/kg, iv; type: ADME, organism-based; design: dose 10 mg/kg, route intravenous; settings: in vivo, read-out: Vz
[21] = Ratio of drug level at steady state in brain to plasma in fasted Wistar rat; type: ADME; settings: read-out: BPR
[22] = AUCt in fasted Wistar rat at 10 mg/kg, po; type: ADME, organism-based; design: dose 10 mg/kg, route oral; settings: plasma
[23] = molecular target: 5-hydroxytryptamine receptor 4 (Homo sapiens, UniProt Q13639); assay: Inhibition of human 5HT4 receptor expressed in CHO cells after 5 hrs by luciferase reporter assay; type: cell-based
5-hydroxytryptamine receptor 4, sequence (Q13639 whole entry): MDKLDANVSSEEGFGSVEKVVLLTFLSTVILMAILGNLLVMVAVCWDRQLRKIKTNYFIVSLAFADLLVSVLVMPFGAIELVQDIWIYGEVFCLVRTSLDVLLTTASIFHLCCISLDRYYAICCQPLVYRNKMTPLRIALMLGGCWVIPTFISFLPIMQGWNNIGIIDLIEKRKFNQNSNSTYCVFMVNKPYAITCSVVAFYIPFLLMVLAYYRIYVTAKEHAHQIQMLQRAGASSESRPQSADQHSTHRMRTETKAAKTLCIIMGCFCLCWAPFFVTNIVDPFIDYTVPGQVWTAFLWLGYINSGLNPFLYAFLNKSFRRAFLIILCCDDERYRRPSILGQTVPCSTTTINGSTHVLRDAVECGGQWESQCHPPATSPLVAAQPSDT

[24] = Half life in fasted Wistar rat at 10 mg/kg, po; type: ADME, organism-based; design: dose 10 mg/kg, route oral; settings: in vivo
[25] = Clearance in fasted Wistar rat at 10 mg/kg, po; type: ADME, organism-based; design: dose 10 mg/kg, route oral; settings: in vivo
[26] = Cmax in fasted Wistar rat at 10 mg/kg, po; type: ADME, organism-based; design: dose 10 mg/kg, route oral; settings: in vivo
Rattus norvegicus [27] = assay: Cognitive enhancing effect against scopolamine-induced memory deficit in Wistar rat at 30 mg/kg, po administered 60 mins before acquisition training measured after 5 days by Morris water maze test; type: functional, organism-based; design: dose 30 mg/kg
[28] = molecular target: T6, Muscarinic acetylcholine receptor M1 (Homo sapiens, UniProt P11229); assay: Inhibition of human muscarinic M1 receptor expressed in CHO cells after 5 hrs by luciferase reporter assay; type: cell-based
T6 sequence (P11229 whole entry): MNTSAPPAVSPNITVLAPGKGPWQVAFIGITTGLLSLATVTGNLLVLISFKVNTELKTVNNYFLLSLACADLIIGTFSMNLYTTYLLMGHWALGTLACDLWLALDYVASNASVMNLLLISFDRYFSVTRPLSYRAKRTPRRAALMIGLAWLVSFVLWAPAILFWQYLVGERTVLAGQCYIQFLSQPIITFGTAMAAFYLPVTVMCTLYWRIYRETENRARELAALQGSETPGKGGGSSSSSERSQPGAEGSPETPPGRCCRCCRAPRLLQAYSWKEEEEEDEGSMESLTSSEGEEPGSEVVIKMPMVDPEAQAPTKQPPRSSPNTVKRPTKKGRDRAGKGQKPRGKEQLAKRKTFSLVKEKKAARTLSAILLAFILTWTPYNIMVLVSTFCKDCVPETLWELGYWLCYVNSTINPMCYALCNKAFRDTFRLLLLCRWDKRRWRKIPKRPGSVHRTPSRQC

[29] = Clearance in fasted Wistar rat at 10 mg/kg, iv; type: ADME, organism-based; design: dose 10 mg/kg, route intravenous; settings: in vivo
[30] = Oral bioavailability in fasted Wistar rat; type: ADME, organism-based; settings: in vivo

5-hydroxytryptamine receptor 6, sequence (P50406 whole entry): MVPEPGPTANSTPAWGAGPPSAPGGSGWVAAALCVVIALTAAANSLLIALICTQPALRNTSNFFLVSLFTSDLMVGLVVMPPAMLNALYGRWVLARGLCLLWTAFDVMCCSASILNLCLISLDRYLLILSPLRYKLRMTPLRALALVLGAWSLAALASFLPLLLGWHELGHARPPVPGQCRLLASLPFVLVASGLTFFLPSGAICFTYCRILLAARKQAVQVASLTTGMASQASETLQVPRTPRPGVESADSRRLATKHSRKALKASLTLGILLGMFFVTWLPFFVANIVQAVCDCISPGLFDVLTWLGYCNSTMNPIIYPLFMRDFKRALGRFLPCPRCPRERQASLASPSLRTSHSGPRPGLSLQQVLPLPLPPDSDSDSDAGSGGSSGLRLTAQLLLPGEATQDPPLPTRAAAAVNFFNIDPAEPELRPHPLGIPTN

| Structure (SMILES) | pKi [1] | inhibition at 10 µM (CYP2C9*1 [2]) [%] | inhibition at 10 µM (CYP2A6 [3]) [%] | inhibition at 3 µM (CYP1A2 [4]) [%] | inhibition at 10 µM (CYP1A2 [5]) [%] | inhibition at 10 µM (CYP3A4 [6]) [%] | inhibition at 3 µM (CYP2A6 [7]) [%] | inhibition at 3 µM (CYP2C19 [8]) [%] | inhibition at 3 µM (CYP3A4 [9]) [%] | inhibition at 3 µM (CYP2C9*1 [10]) [%] | inhibition at 10 µM (CYP2C19 [11]) [%] | inhibition at 10 µM (CYP2D6 [12]) [%] | inhibition at 3 µM (CYP2D6 [13]) [%] | other results |
| --- | --- | --- | --- | --- | --- | --- | --- | --- | --- | --- | --- | --- | --- | --- |
| CCN1CCN(Cc2ccc3c(ccn3S(=O)(=O)c3ccc(C)cc3)c2)CC1 | 7.96 |  |  |  |  |  |  |  |  |  |  |  |  |  |
| CN1CCN(Cc2ccc3c(ccn3S(=O)(=O)c3cccc(C(F)(F)F)c3)c2)CC1 | 8.50 |  |  |  |  |  |  |  |  |  |  |  |  |  |
| CCN1CCN(Cc2ccc3c(ccn3S(=O)(=O)c3cccc(C(F)(F)F)c3)c2)CC1 | 8.24 |  |  |  |  |  |  |  |  |  |  |  |  |  |
| CN1CCN(Cc2ccc3c(ccn3S(=O)(=O)c3ccccc3)c2)CC1 |  | 18.2 | 4.81 | 14.4 | 17.3 | 5.47 | -2.24 | 9.91 | 8.24 | -8.69 | 31.2 | 31.2 | 12 |  |
| CCN1CCN(Cc2ccc3c(ccn3S(=O)(=O)c3ccccc3Br)c2)CC1 |  | 15.9 | 10.8 | 3.64 | 17.9 | 32.9 | -0.39 | 22.8 | -3.67 | 7.47 | 43.6 | 76.2 | 48.3 | half-life [14]: 2.1 h; Cmax [15]: 716 ng/mL; AUC(0-t) [16]: 1380 ng·h/mL; Vz (Rattus norvegicus [17]): 1035.145 L/kg; pIC50 [18]: < 5.00; Activity (Rattus norvegicus [19]): Active; Vd [20]: 21.8 L/kg; Kp [21]: 19.3; AUC(0-t) [22]: 59 ng·h/mL; pIC50 [23]: < 5.00; half-life [24]: 6.04 h; CL/F [25]: 2140 mL/min/kg; Cmax [26]: 13 ng/mL; Activity (Rattus norvegicus [27]): Active; pIC50 [28]: 5.85; clearance [29]: 120 mL/min/kg; bioavailability [30]: 4.2% |
| CN1CCN(Cc2ccc3c(c2)c(Cl)cn3S(=O)(=O)c2ccc(F)cc2)CC1 |  | 9.13 | 19.8 | 3.4 | 26.9 | 39 | 14.1 | 10.1 | 2.6 | 6.42 | 21.5 | 15.2 | 6.42 | pIC50 [18]: < 5.00; pIC50 [23]: < 5.00; pIC50 [28]: < 5.00 |
| CN1CCN(Cc2ccc3c(ccn3C(=O)c3ccccc3)c2)CC1 | < 6.00 |  |  |  |  |  |  |  |  |  |  |  |  |  |
| CCN1CCN(Cc2ccc3c(ccn3S(=O)(=O)c3ccc(C(C)C)cc3)c2)CC1 |  | 46.3 | 21.9 | 14.5 | 18.2 | 68.1 | -1.26 | 23.9 | 30.5 | 7.12 | 51.1 | 35.7 | 10.4 |  |
| CCN1CCN(Cc2ccc3c(ccn3S(=O)(=O)c3ccc(F)cc3)c2)CC1 |  | 19.6 | 10.2 | 13.7 | 8.34 | 34.2 | -7.74 | 6.75 | 18.6 | -14.3 | 4.7 | 46 | 10.3 |  |
| CCN1CCN(Cc2ccc3c(ccn3Cc3ccccc3)c2)CC1 | < 6.00 |  |  |  |  |  |  |  |  |  |  |  |  |  |
| O=S(=O)(c1ccc(F)cc1F)n1cc(Cl)c2cc(CN3CCNCC3)ccc21 | 8.25 | 27.8 | 6.37 | 14.5 | 14.6 | 45 | -3.62 | 31.9 | 26.4 | -12.6 | 72.9 | 17.7 | 1.46 |  |
| CN1CCN(Cc2ccc3c(c2)c(Cl)cn3S(=O)(=O)c2ccc(Cl)cc2)CC1 | 8.03 |  |  |  |  |  |  |  |  |  |  |  |  |  |
| CCN1CCN(Cc2ccc3c(ccn3S(=O)(=O)c3ccc(Cl)cc3)c2)CC1 | 7.55 |  |  |  |  |  |  |  |  |  |  |  |  |  |
